Here are results for six compounds from ChEMBL document CHEMBL1140427, “Semi-rational design of (north)-methanocarba nucleosides as dual acting A(1) and A(3) adenosine receptor agonists: novel prototypes for cardioprotection” (J Med Chem, 2005).

Assay [1] addresses T1, Adenosine receptor A1 (Homo sapiens, UniProt P30542).
T1 sequence (P30542 whole entry): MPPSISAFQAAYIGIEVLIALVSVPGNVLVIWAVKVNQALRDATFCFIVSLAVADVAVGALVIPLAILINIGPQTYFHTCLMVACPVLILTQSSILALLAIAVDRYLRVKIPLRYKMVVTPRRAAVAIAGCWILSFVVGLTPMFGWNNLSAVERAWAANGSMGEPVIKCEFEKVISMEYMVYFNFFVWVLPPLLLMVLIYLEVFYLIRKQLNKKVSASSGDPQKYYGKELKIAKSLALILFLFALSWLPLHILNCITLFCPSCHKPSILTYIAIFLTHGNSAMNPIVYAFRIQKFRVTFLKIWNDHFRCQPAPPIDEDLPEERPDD
Nature of the assay: Displacement of [3H]R-PIA or [3H]CGS 21680 from human adenosine A1 receptor in CHO cells. Format: cell-based.

The target in another assay is Adenosine receptor A2a (Homo sapiens, UniProt P29274). Nature of the assay: Displacement of [3H]R-PIA or [3H]CGS 21680 from human adenosine A2A receptor in CHO cells. The class given is cell-based.
Assay [2] concerns the target T2, Adenosine receptor A3 (Homo sapiens, UniProt P0DMS8).
T2 sequence (P0DMS8 whole entry): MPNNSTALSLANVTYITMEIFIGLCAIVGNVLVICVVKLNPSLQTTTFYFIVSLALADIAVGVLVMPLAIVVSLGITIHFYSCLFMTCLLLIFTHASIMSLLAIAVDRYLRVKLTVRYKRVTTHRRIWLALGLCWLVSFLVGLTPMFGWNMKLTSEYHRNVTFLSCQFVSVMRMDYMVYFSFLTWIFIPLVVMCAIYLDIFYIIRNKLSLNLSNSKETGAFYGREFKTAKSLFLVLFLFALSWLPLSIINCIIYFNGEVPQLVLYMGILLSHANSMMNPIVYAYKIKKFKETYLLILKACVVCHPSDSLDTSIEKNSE
The experiment in a line: Binding affinity to human adenosine A3 receptor in CHO cells.

Assay [3] has as its target T3, Adenosine receptor A3 (Rattus norvegicus, UniProt P28647).
T3 sequence (P28647 whole entry): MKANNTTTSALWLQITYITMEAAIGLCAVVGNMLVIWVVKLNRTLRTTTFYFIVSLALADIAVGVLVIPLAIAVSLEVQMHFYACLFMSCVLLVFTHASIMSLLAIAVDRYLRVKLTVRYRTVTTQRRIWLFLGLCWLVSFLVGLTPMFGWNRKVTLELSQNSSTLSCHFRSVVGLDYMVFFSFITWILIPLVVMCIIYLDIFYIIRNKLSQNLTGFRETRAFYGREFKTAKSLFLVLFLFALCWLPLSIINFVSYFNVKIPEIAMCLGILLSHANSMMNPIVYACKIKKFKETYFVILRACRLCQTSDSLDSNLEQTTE
Nature of the assay: Binding affinity to rat adenosine A3 receptor in CHO cells. The class given is cell-based.

Assay [4] concerns the target T4, Adenosine receptor A3 (Homo sapiens) (UniProt P0DMS8).
T4 sequence (whole entry): T2 sequence (P0DMS8 whole entry)
The experiment in a line: Maximal agonist effect at human adenosine A3 receptor in CHO cells at 10 uM by the inhibition of forskolin-stimulated cAMP production. Further details: scale not given: the % may be the effect or the level left. Format: functional, cell-based. (In general: cAMP levels reflect the balance of adenylyl cyclase and phosphodiesterase activity.)

For the next assay, the target named is T5, Adenosine receptor A2b (Homo sapiens, UniProt P29275).
T5 sequence (P29275 whole entry): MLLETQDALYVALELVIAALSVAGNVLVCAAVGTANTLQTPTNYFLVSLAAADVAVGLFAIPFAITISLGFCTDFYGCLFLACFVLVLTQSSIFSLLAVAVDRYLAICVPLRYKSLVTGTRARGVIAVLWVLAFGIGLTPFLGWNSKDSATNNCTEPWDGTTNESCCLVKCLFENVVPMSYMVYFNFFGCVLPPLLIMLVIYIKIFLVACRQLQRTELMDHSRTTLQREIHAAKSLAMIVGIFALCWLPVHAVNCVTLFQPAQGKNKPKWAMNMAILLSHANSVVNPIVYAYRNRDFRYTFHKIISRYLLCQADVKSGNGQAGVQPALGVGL
The experiment in a line: Agonistic effect at human adenosine A2B receptor in CHO cells. The class given is functional, cell-based.

Assay [5] has as its target T6, Adenosine receptor A1 (Rattus norvegicus, UniProt P25099).
T6 sequence (P25099 whole entry): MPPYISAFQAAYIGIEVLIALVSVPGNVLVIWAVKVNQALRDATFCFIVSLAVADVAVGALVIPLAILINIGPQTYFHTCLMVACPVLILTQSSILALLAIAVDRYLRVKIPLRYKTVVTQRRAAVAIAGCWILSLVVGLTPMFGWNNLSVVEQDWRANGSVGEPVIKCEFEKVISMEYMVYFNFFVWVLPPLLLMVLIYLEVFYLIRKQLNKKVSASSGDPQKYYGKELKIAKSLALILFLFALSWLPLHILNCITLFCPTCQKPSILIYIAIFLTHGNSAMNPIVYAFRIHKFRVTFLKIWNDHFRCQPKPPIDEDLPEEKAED
Nature of the assay: Binding affinity to rat adenosine A1 receptor in CHO cells.

Assay [6] addresses T1, Adenosine receptor A1. Nature of the assay: Agonistic effect at human adenosine A1 receptor in CHO cells. Format: functional, cell-based.
Assay [7] concerns the target T2, Adenosine receptor A3. Nature of the assay: Agonistic effect at human adenosine A3 receptor in CHO cells. The class given is functional, cell-based.

Molecules are shown by their SMILES.

The term Ki denotes the equilibrium dissociation constant of an inhibitor or competing ligand from its target. A word on the EC50: it is the concentration needed to bring the measured effect to its halfway point.

Adenosine receptor A2a, sequence (P29274 whole entry): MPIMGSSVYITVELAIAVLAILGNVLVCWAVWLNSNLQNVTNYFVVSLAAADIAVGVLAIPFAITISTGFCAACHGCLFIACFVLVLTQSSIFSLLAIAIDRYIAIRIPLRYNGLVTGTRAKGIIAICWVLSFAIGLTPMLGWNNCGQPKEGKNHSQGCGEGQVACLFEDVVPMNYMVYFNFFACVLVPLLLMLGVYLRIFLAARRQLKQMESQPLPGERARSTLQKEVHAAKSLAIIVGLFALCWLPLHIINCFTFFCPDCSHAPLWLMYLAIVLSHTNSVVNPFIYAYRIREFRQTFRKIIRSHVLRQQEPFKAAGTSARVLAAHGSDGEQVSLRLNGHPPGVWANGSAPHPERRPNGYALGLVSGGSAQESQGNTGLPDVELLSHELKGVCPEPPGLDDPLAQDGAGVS

`CNC(=O)C12C[C@@H]1[C@@H](n1cnc3c(NC4C5CCC4CC5)nc(Cl)nc31)[C@H](O)[C@@H]2O` (single isomer, unassigned): the Ki on Adenosine receptor A1 [1] is 190 nM; at Adenosine receptor A2a, greater than 10 µM; at Adenosine receptor A3 [2], 14.6 nM; at Adenosine receptor A3 [3], 9.6 nM. This compound displayed an Activity in [4] of 92%. Besides, the EC50 on Adenosine receptor A2b was greater than 10 µM.

In the case of `CNC(=O)C12C[C@@H]1[C@@H](n1cnc3c(NC4CCCC4)ncnc31)[C@H](O)[C@@H]2O` (single isomer, unassigned), the results for the Ki on Adenosine receptor A2a, on Adenosine receptor A3 [2] and at Adenosine receptor A3 [3] were 6.42 µM, 13.1 nM and 10.2 nM, respectively. In assay [4], this compound yielded an Activity of 93%. In addition, the EC50 on Adenosine receptor A2b is greater than 10 µM.

On to `OC[C@H]1O[C@@H](n2cnc3c(NC4C5CCC4CC5)ncnc32)[C@H](O)[C@@H]1O` (stereo partly specified), for which the Ki at Adenosine receptor A3 [2] stood at 112 nM; at Adenosine receptor A3 [3], 229 nM. In addition, in assay [4], the Activity was found to be 112%.

Regarding `OC[C@H]1O[C@@H](n2cnc3c(NC4CCCC4)nc(Cl)nc32)[C@H](O)[C@@H]1O`, the Activity in [4] was 0%.

Regarding `CNC(=O)C12C[C@@H]1[C@@H](n1cnc3c(NC4CCCC4)nc(Cl)nc31)[C@H](O)[C@@H]2O` (single isomer, unassigned), the Ki at Adenosine receptor A1 [1] is 18.3 nM; on Adenosine receptor A2a it was 3.25 µM; at Adenosine receptor A3 [2], 3.7 nM; on Adenosine receptor A1 [5], 17.4 nM. In addition, the Activity in assay [4] is 101%. The EC50 at Adenosine receptor A1 [6] was 8.2 nM; on Adenosine receptor A3 [7], 2.8 nM; on Adenosine receptor A2b it was greater than 10 µM.

On to `OC[C@H]1O[C@@H](n2cnc3c(NC4CCCC4)ncnc32)[C@H](O)[C@@H]1O` [N6-CYCLOPENTYLADENOSINE], for which the results for the Ki on Adenosine receptor A2a and on Adenosine receptor A3 [2] were 0.462 µM and 240 nM, respectively. The same compound returned an Activity in [4] of 72%.
